Data published in patent US20260365653A1, “IRREVERSIBLE MUTEGFR INHIBITORS” (Bayer Aktiengesellschaft, priority 2022, published 2026).

What was measured:
[1] = target: T1, mutEGFR (D770_N771insNPG, T790) (Homo sapiens, UniProt P00533, INS770NPG/T790M); assay: mutEGFR (D770_N771insNPG, T790) kinase assay; format: biochemical; conditions: Table 2a, D770_N771insNPG
T1 construct: exact insNPG construct not described; in-house EGFR proteins were N-terminal GST fusions from baculovirus/insect cells (borders R669-A1210 given only for WT, insSVD, insASV)
T1 sequence (P00533 with tags, fused parts or gaps INS770NPG/T790M limits assumed): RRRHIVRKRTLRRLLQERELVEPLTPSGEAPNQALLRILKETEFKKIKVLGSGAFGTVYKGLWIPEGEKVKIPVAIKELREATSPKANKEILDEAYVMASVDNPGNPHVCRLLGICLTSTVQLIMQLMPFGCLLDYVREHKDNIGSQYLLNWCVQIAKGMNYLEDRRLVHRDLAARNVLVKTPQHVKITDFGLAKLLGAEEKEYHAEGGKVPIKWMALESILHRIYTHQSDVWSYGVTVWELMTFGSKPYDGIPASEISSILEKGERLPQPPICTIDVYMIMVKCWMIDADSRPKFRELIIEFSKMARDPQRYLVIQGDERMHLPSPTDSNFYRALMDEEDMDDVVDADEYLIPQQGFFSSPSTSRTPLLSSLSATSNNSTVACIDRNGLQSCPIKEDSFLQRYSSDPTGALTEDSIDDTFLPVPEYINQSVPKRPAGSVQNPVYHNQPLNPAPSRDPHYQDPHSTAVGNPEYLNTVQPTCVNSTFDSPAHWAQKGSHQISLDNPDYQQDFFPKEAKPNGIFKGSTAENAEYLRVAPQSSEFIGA
Description: The different EGFR proteins used in the biochemical kinase activity inhibition assays were generated inhouse by expression in insect cells using Baculo Virus system and subsequent purification as described in the following paragraphs.
The cDNAs encoding the various protein sequences from human EGFR human (P00533) were optimized for expression in eukaryotic cells and synthesized by the GeneArt Technology at Life Technologies.

[2] = target: T2, mutEGFR (D770_N771insSVD) (Homo sapiens, UniProt P00533, DUP768-770); assay: Exon20-Mutant-EGFR (D770_N771insSVD) kinase assay (TR-FRET); format: biochemical; conditions: mutEGFR (D770_N771insSVD) kinase assay IC50, Table 2a; D770_N771insSVD; 2 mM ATP
T2 construct: GST-EGFR #3 (SVD between D770 and N771); made in house; host or cells: Sf9 insect cells (baculovirus)
T2 sequence (P00533 with tags, fused parts or gaps DUP768-770): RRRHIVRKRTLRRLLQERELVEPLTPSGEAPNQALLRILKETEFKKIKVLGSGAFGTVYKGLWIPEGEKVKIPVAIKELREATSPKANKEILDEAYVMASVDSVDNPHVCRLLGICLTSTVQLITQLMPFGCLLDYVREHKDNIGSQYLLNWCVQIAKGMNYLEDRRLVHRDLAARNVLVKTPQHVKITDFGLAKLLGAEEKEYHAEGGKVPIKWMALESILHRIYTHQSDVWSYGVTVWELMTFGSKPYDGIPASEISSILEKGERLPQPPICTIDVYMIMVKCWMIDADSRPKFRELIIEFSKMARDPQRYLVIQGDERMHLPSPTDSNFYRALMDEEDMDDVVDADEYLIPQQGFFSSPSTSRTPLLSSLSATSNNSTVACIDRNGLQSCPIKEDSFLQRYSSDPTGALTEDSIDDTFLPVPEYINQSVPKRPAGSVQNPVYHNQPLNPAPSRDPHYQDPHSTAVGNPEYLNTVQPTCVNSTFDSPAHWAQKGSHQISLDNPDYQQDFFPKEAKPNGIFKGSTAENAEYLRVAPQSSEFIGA

BA/F3 (insSVD) cells = assay: Ba/F3-EGFR-insSVD cell survival assay (Cell Titer-Glo); format: cell-based; conditions: Table 3a, cell survival, Cell Titer-Glo, with 10 ng/ml EGF, without IL-3
Method: Cellular Data Description (WT, insSVD, insSVD T790M) 293T cells from ATCC were transfected with pBABEpuro expression constructs for WT EGFR or EGFR-insSVD, or EGFR-insSVD T790M, and pCL-Eco packaging vector using Fugene-6 transfection reagent from Promega. Plates were incubated at 37° C. for 48 h. Retrovirus was harvested by filtering the media supernatant through a 0.45 μm filter.
Ba/F3 cells purchased from DSMZ were grown in RPMI+10% FBS+10 ng/ml IL-3 and infected with filtered retroviral supernatant at a 1:2 dilution. Polybrene was added to a concentration of 8 μg/mL, plates were spun for 90 min, and incubated for 16 h at 37° C. 2 μg/mL puromycin was added to the infected cells 24 h after infection and cells were continually grown in the presence of puromycin and 10 ng/ml IL-3. Following stably expressing Ba/F3 cell lines were generated: Ba/F3-EGFR-WT, Ba/F3-EGFR-insSVD, Ba/F3-EGFR-insSVD T790M, (Ba/F3-vector-control).
For cell survival assays, Ba/F3 cells were grown to a density of 1-2 million cells per mL, spun down and resuspended in media without IL-3, and replated at a concentration of 200,000-500,000 cells per mL. The cells ectopically expressing WT EGFR, EGFR-insSVD, or EGFR-insSVD T790M were plated with 10 ng/ml Millipore Culture grade EGF. The cells ectopically expressing pBABEpuro empty vector were plated with 10 ng/mL IL-3.
2 days later, cells were plated in 50 µL in a 384 well plate at a concentration of 4000 cells per well for cells assayed in the absence of IL-3 and 2000 cells per well for cells assayed in the presence of IL-3. 100 nL of compound was added to each well using a 100 nL pin head, and plates were incubated at 37° C. for 48 h.
Cell viability was measured by adding 20 μL of Cell Titer-Glo Luminescent Cell Viability Reagent diluted 1:3 in PBS. Plates were sealed with Perkin Elmer Top-Seal, inverted several times to mix, and immediately centrifuged at 1000 rpm for 2 min. Plates were incubated in low light conditions for 8-10 min and luminescence was measured.

| IC50 [1] [nM] | IC50 [2] [nM] | SMILES | IC50 (BA/F3 (insSVD) cells; Mus musculus, BaF3, 48 h) [nM] | IC50 (BA/F3 (insSVD) cells; 48 h) [nM] |
| --- | --- | --- | --- | --- |
| 1130 | 765 | CC1c2c(-c3ccnc4[nH]ccc34)c(-c3ccc(C(F)(F)F)cc3)nn2CCN1C(=O)/C=C/CN(C)C (single isomer, unassigned; isomer 1) [Example 264, (E)-4-(dimethylamino)-1-(4-methyl-3-(1H-pyrrolo[2,3-b]pyridin-4-yl)-2-(4-(trifluoromethyl)phenyl)-6,7-dihydropyrazolo[1,5-a]pyrazin-5(4H)-yl) but-2-en-1-one (isomer 1)] |  | 128 |
| 6300 | 4040 | Cc1c[nH]c2nccc(-c3c(-c4ccc(C(F)(F)F)cc4)nn4c3C(C)N(C(=O)/C=C/CN(C)C)CC4)c12 (single isomer, unassigned; isomer 1) [Example 265, (E)-4-(dimethylamino)-1-(4-methyl-3-(3-methyl-1H-pyrrolo[2,3-b]pyridin-4-yl)-2-(4-(trifluoromethyl)phenyl)-6,7-dihydropyrazolo[1,5-a]pyrazin-5(4H)-yl) but-2-en-1-one (isomer 1)] |  | 172 |
| 446 | 940 | Cc1c[nH]c2nccc(-c3c(-c4ccc(F)cc4)nn4c3C(C)N(C(=O)/C=C/CN(C)C)CC4)c12 (single isomer, unassigned; isomer 1) [Example 268, (E)-4-(dimethylamino)-1-(2-(4-fluorophenyl)-4-methyl-3-(3-methyl-1H-pyrrolo[2,3-b]pyridin-4-yl)-6,7-dihydropyrazolo[1,5-a]pyrazin-5(4H)-yl) but-2-en-1-one (isomer 1)] |  | 279 |
| 3.11 | 1.35 | C=CC(=O)N1Cc2c(-c3ccncc3)c(-c3ccc(OC)cc3)nn2C(C)C1 (single isomer, unassigned; isomer 1) [Example 274, 1-[2-(4-methoxyphenyl)-7-methyl-3-(pyridin-4-yl)-6,7-dihydropyrazolo[1,5-a]pyrazin-5(4H)-yl]prop-2-en-1-one (isomer 1)] |  | 34.1 |
| 0.551 | 0.204 | C=CC(=O)N1CCn2nc(-c3ccc(Cl)cc3F)c(-c3ccncc3)c2C1C (single isomer, unassigned; isomer 1) [Example 278, 1-[2-(4-chloro-2-fluorophenyl)-4-methyl-3-(pyridin-4-yl)-6,7-dihydropyrazolo[1,5-a]pyrazin-5(4H)-yl]prop-2-en-1-one (isomer 1)] |  | 9.07 |
| 0.282 | 0.117 | C=CC(=O)N1Cc2c(-c3ccncc3)c(-c3ccc(Cl)cc3F)nn2C(C)C1 (single isomer, unassigned; isomer 1) [Example 282, 1-[2-(4-chloro-2-fluorophenyl)-7-methyl-3-(pyridin-4-yl)-6,7-dihydropyrazolo[1,5-a]pyrazin-5(4H)-yl]prop-2-en-1-one (isomer 1)] | 6.15 |  |
| 0.644 | 0.232 | CC1c2c(-c3ccncc3)c(-c3ccc(Cl)cc3F)nn2CCN1C(=O)/C=C/CN(C)C (single isomer, unassigned; isomer 1) [Example 285, (2E)-1-[2-(4-chloro-2-fluorophenyl)-4-methyl-3-(pyridin-4-yl)-6,7-dihydropyrazolo[1,5-a]pyrazin-5(4H)-yl]-4-(dimethylamino)but-2-en-1-one (isomer 1)] |  | 42 |
| 0.415 | 0.22 | CC1CN(C(=O)/C=C/CN(C)C)Cc2c(-c3ccncc3)c(-c3ccc(Cl)cc3F)nn21 (single isomer, unassigned; isomer 1) [Example 287, (2E)-1-[2-(4-chloro-2-fluorophenyl)-7-methyl-3-(pyridin-4-yl)-6,7-dihydropyrazolo[1,5-a]pyrazin-5(4H)-yl]-4-(dimethylamino)but-2-en-1-one (isomer 1)] | 37.3 |  |
| 0.34 | 0.129 | C=CC(=O)N1C(C)c2c(-c3ccncc3)c(-c3ccc(Cl)cc3F)nn2C[C@@H]1C (single isomer, unassigned; isomer 1) [Example 292] |  | 4.08 |

The remaining lines, values behind:

| SMILES | IC50 [1] [nM] | IC50 [2] [nM] | IC50 (BA/F3 (insSVD) cells; Mus musculus, BaF3, 48 h) [nM] | IC50 (BA/F3 (insSVD) cells; 48 h) [nM] |
| --- | --- | --- | --- | --- |
| C=CC(=O)N1Cc2c(-c3ccncc3)c(-c3ccc(F)cc3)nn2C(C(=O)NC)C1 (single isomer, unassigned; isomer 1) [Example 205, 5-acryloyl-2-(4-fluorophenyl)-N-methyl-3-(pyridin-4-yl)-4,5,6,7-tetrahydropyrazolo[1,5-a]pyrazine-7-carboxamide (isomer 1)] | 144 | 137 | 824 |  |
| C=CC(=O)N1Cc2c(-c3ccncc3)c(-c3ccc(F)cc3)nn2C(C(=O)N(C)C)C1 (single isomer, unassigned; isomer 1) [Example 206, 5-acryloyl-2-(4-fluorophenyl)-N,N-dimethyl-3-(pyridin-4-yl)-4,5,6,7-tetrahydropyrazolo[1,5-a]pyrazine-7-carboxamide (isomer 1)] | 82.9 | 55.3 | 600 |  |
| C=CC(=O)N1CCn2nc(-c3ccc(F)cc3)c(-c3ccnc4[nH]ccc34)c2C1C (single isomer, unassigned; isomer 1) [Example 249, 1-(2-(4-fluorophenyl)-4-methyl-3-(1H-pyrrolo[2,3-b]pyridin-4-yl)-6,7-dihydropyrazolo[1,5-a]pyrazin-5(4H)-yl) prop-2-en-1-one (isomer 1)] | 57.5 | 372 | 98.7 |  |
| CC1c2c(-c3ccnc4[nH]ccc34)c(-c3ccc(F)cc3)nn2CCN1C(=O)/C=C/CN(C)C (single isomer, unassigned; isomer 1) [Example 255, 4-(dimethylamino)-1-[2-(4-fluorophenyl)-4-methyl-3-(1H-pyrrolo[2,3-b]pyridin-4-yl)-6,7-dihydropyrazolo[1,5-a]pyrazin-5(4H)-yl]but-2-en-1-one (isomer 1)] | 9610 | 3180 | 296 |  |
| C=CC(=O)N1CCn2nc(-c3ccc(C(F)(F)F)cc3)c(-c3ccnc4[nH]ccc34)c2C1C (single isomer, unassigned; isomer 1) [Example 258, 1-(4-methyl-3-(1H-pyrrolo[2,3-b]pyridin-4-yl)-2-(4-(trifluoromethyl)phenyl)-6,7-dihydropyrazolo[1,5-a]pyrazin-5(4H)-yl) prop-2-en-1-one (isomer 1)] | 1070 | 100 |  | 82.6 |
| C=CC(=O)N1CCn2nc(-c3ccc(C(F)(F)F)cc3)c(-c3ccnc4[nH]cc(C)c34)c2C1C (single isomer, unassigned; isomer 1) [Example 259, 1-(4-methyl-3-(3-methyl-1H-pyrrolo[2,3-b]pyridin-4-yl)-2-(4-(trifluoromethyl)phenyl)-6,7-dihydropyrazolo[1,5-a]pyrazin-5(4H)-yl) prop-2-en-1-one (isomer 1)] | 13300 | 683 | 296 |  |
| C=CC(=O)N1CCn2nc(-c3ccc(F)cc3)c(-c3ccnc4[nH]cc(C)c34)c2C1C (single isomer, unassigned; isomer 1) [Example 262, 1-(2-(4-fluorophenyl)-4-methyl-3-(3-methyl-1H-pyrrolo[2,3-b]pyridin-4-yl)-6,7-dihydropyrazolo[1,5-a]pyrazin-5(4H)-yl) prop-2-en-1-one (isomer 1)] | 396 | 1620 |  | 452 |
